In assay [1] the target is T1, human MR (hMR) (Homo sapiens, UniProt P08235).
T1 construct: expressed in transfected cells; host or cells: COS-7
T1 sequence (P08235 1-984): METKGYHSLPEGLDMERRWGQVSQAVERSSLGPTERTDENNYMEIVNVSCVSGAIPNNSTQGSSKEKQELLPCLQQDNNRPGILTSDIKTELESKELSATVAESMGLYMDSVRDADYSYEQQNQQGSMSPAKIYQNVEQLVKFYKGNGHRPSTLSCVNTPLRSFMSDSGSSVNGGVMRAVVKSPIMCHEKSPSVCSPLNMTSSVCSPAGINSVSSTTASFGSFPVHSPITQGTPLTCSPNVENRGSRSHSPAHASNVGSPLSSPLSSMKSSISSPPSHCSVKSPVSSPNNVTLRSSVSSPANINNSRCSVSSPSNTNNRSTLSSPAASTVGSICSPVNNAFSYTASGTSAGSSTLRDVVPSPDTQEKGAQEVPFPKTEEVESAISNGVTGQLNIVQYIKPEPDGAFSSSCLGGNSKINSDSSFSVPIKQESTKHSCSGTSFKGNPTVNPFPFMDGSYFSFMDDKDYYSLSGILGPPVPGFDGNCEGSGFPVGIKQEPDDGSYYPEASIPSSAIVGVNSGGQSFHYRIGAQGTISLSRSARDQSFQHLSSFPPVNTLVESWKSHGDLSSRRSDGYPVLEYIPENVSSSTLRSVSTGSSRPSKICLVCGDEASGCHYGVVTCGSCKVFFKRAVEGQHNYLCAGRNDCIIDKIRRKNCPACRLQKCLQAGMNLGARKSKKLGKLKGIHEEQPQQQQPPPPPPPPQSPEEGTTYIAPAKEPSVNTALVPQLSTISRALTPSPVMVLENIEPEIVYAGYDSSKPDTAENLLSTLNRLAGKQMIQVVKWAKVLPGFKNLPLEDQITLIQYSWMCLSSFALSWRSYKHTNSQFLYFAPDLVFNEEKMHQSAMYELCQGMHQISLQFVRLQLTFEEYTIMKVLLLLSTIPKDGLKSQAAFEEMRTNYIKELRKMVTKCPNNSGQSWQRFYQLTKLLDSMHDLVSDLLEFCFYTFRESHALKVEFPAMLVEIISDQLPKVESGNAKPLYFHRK
In words: [3H]-aldosterone displacement from human MR, ligand-receptor binding assay in transfected COS-7 cells. The settings on record: 1 nM [3H]-aldosterone, increasing concentrations of unlabeled ligand, one-site model. How it is done: Ligand-receptor binding assays were performed as described before. Briefly, COS-7 cells were seeded on 24-well plates and transfected with plasmid pcDNA3-hMR. Twenty-four hours after transfection, cells were washed once with serum-free DMEM and incubated for 2 h in 500 μL of the same medium containing the indicated concentration of each compound. After this initial period, cells were further incubated with the indicated compounds and 1 × 10^−9 M [^3H]-aldosterone (PerkinElmer Life Sciences, Waltham, MA, USA) for one additional hour. Cells were then washed twice with phosphate-buffered saline (PBS: 137 mM NaCl, 2,7 mM KCl, 10 mM Na2HPO4, 1.8 mM KH2PO4, pH 7.4) and then extracted with 200 μL of an ethanol:water mix (4:1, v:v). Disintegrations were recorded using liquid scintillation in a β counter. Control conditions included non-transfected cells, transfected cells treated with unlabeled aldosterone or transfected cells, treated with 1 nM [^3H]-aldosterone in the presence of 1 × 10^−5 M unlabeled aldosterone. Specific binding was determined by subtracting the number of disintegrations per minute (dpm) in the presence of 1 × 10^−5 M unlabeled aldosterone from the condition with 1 nM [^3H]-aldosterone. Each condition was performed in triplicate. Competition of each compound for 1 nM [^3H]-aldosterone binding was calculated as the percentage of the maximum binding obtained in the absence of compound.

Assay [2] addresses T1, human MR (hMR). As to the kind of experiment: MR gene reporter transactivation assay in transiently transfected COS-7 cells. The format is cell-based. The following applies: 1,4-DHP derivative 5 μM, 10 nM aldosterone stimulation. As for the experimental part: Receptor transcriptional activity was assessed using a transactivation gene reporter assay, as described. Briefly, COS-7 cells were seeded on 96-well plates in DMEM supplemented with 10% charcoal-stripped FBS (Biowest, Nuaillé, France). Twenty-four hours after seeding, cells were transfected with pcDNA3-hMR, pcDNA3-hGR, or pCMV-FLAG-hAR in combination with pSG5-luc and pSG5-ren in a 5:4:1 proportion, respectively. […] After 2 h of incubation, cells were further treated with agonists (1 × 10^−8 M aldosterone; 1 × 10^−8 M testosterone or 0.5 × 10^−6 M cortisol) in the presence of each compound for 16 h. […] MR maximum and minimum activity were obtained in each assay using conditions with 1 × 10^−9 M aldosterone or vehicle (ethanol). Each condition was performed in three parallel wells. After treatments, firefly and Renilla luciferase activities were measured sequentially in the cell lysates using a commercially available kit (Dual-Glo; Promega, Madison, WI, USA). Receptor transcriptional activity was calculated as the ratio luc/ren. The activities in each condition were normalized to the activity obtained with vehicle or with agonist as indicated in each figure panel and are expressed a as percentage of the maximum value ± SD.

The target in the next assay is T2, human AR (Homo sapiens, UniProt P10275).
T2 construct: Plasmid pCMV-FLAG-hAR, expressing full-length human AR; host or cells: COS-7
T2 sequence (P10275 1-920): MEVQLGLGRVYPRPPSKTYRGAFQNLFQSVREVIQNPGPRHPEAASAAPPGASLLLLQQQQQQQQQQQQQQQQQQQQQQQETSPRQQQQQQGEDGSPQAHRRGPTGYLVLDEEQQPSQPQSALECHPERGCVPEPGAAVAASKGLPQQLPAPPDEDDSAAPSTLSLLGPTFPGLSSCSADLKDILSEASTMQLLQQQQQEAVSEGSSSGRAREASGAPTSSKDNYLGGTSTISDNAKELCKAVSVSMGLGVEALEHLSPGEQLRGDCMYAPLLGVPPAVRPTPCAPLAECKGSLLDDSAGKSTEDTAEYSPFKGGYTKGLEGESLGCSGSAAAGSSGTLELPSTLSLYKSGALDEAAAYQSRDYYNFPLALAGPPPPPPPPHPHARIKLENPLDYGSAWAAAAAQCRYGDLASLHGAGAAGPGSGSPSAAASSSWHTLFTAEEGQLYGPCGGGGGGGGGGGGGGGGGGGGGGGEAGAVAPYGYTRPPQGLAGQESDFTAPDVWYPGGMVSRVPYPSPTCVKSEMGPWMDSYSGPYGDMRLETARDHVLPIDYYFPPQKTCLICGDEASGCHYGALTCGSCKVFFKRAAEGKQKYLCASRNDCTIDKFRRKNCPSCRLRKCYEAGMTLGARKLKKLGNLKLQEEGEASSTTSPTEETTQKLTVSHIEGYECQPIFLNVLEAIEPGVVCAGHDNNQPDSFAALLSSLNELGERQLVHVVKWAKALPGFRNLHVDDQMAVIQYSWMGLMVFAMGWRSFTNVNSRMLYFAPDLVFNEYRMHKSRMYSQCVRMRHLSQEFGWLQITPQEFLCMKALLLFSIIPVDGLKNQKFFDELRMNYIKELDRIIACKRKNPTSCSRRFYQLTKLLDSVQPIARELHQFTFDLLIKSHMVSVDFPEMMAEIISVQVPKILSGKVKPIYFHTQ
As to the kind of experiment: AR reporter gene transactivation assay in COS-7 cells. In kind it is cell-based. The settings on record: 5 μM derivative, stimulation by 10 nM testosterone. As for the experimental part:
Receptor transcriptional activity was assessed using a transactivation gene reporter assay, as described. Briefly, COS-7 cells were seeded on 96-well plates in DMEM supplemented with 10% charcoal-stripped FBS (Biowest, Nuaillé, France). Twenty-four hours after seeding, cells were transfected with pcDNA3-hMR, pcDNA3-hGR, or pCMV-FLAG-hAR in combination with pSG5-luc and pSG5-ren in a 5:4:1 proportion, respectively. […] After 2 h of incubation, cells were further treated with agonists (1 × 10^−8 M aldosterone; 1 × 10^−8 M testosterone or 0.5 × 10^−6 M cortisol) in the presence of each compound for 16 h. Assays using hMR included a control condition with 0.25 × 10^−6 M eplerenone. MR maximum and minimum activity were obtained in each assay using conditions with 1 × 10^−9 M aldosterone or vehicle (ethanol). Each condition was performed in three parallel wells. After treatments, firefly and Renilla luciferase activities were measured sequentially in the cell lysates using a commercially available kit (Dual-Glo; Promega, Madison, WI, USA). Receptor transcriptional activity was calculated as the ratio luc/ren. The activities in each condition were normalized to the activity obtained with vehicle or with agonist as indicated in each figure panel and are expressed a as percentage of the maximum value ± SD.
(In general: Reporter assays use an easily measured gene product as a stand-in for the process of interest.)

Broadly, the Ki is a measure of affinity in units of concentration, obtained from inhibition or displacement. The low end stands for higher affinity, the high end for lower affinity.

As to `COC(=O)C1=C(CNC(=O)OCc2ccccc2)NC(C)=C(C#N)C1c1ccc(C#N)cc1OC` (stereo not drawn) [Compound 16, Methyl 2-[(benzyloxycarbonyl)amino]methyl-5-cyano-4-(4-cyano-2-methoxy)phenyl-6-methyl-1,4-dihydropyridine-3-carboxylate], the affinity at human MR (hMR) [1] corresponds to a Ki of 262 nM. The “MR activity, % of the maximal activity” value at human MR (hMR) [2] is recorded as 57%. For the same compound, the “decrease of AR activation” value at human AR worked out at 15%.

The values above are taken from paper PMC9917360, “Novel 1,4-Dihydropyridine Derivatives as Mineralocorticoid Receptor Antagonists” (International Journal of Molecular Sciences, 2023).
